# Measurements taken from patent US20260216355A1, “ANTIBODY-DRUG CONJUGATE FROM N-OXYCYCLOALKYL SUBSTITUTED CAMPTOTHECIN DERIVATIVE” (priority 2022, published 2026).
# How the values were obtained:
# [1] = tested on: breast cancer cells MDA-MB-231; experiment: In vitro inhibitory activity of ADC against tumor cell growth (CCK-8), MDA-MB-231; type: cell-based, Human; conditions: MDA-MB-231 cells, 6 days incubation
# From the text: (§1) Method for in vitro inhibitory activity assay of ADC: Human esophageal cancer cells OE-33, lung cancer cells NCI-H1975, and breast cancer cells MDA-MB-231 used for activity assays were respectively cultured in RPMI1640 (Cellmax), RPMI1640 (Cellmax), and DMEM (Cellmax) media containing 10% fetal bovine serum (FBS, Cellmax) to the exponential growth phase. After trypsinization, the cells were centrifuged, and the supernatant was discarded. The cells were resuspended with media and diluted to 3×10^4 cells/mL, 0.5×10^4 cells/mL and 1.5×10^4 cells/mL respectively. Then, 100 μL of each cell suspension was added to a 96-well cell culture plate, and the plate was returned to an incubator at 37° C. with 5% CO2 for overnight culture. The next day, the ADC to be tested was diluted to 2000 nM, 400 nM, 80 nM, 16 nM, 3.2 nM, 0.64 nM, 0.128 nM, and 0.026 nM using culture medium. The diluted ADC was added to a 96-well cell culture plate at 100 μL per well, with 3 replicates set for each concentration. For the negative control without ADC and the blank control, 100 μL of culture medium was added to each well. After the sample addition was finished, the plate was returned to the incubator at 37° C. with 5% CO2 for further incubation for 6 days. Upon completion of incubation, the cell culture plate was removed, and the medium in the plate was aspirated using a pipette. 100 μL of medium containing 10% CCK-8 was added to each well, followed by incubation at 37° C. for 3 h. After incubation, the plate was removed, protected from light, placed in a microplate reader, and the absorbance was measured at a test wavelength of 450 nm with a reference wavelength of 630 nm. Based on the absorbance values, the IC50 (Table 1) was calculated using four-parameter regression in GraphPad. The corresponding ADC drug containing Dxd was used as a positive control drug, which has the following structure: […]
# [2] = tested on: lung cancer cells NCI-H1975; experiment: In vitro inhibitory activity of ADC against tumor cell growth (CCK-8), NCI-H1975; type: cell-based, Human; conditions: 6 days incubation
# From the text: as §1
# [3] = tested on: Human esophageal cancer cells OE-33; experiment: In vitro inhibitory activity of ADC against tumor cell growth (CCK-8), OE-33; type: cell-based; conditions: OE-33 cells, 6 days incubation
# From the text: as §1
Substance,IC50 [1],IC50 [2],IC50 [3]
"7-(N-(IP140B-Ac-PEG2-Gly-Lys-PABC), N-((S)-tetrahydrofuran-3-yl)amino)ethyl-10,11-methylenedioxycamptothecin [ADC 16]",50 to 500 nM,50 to 500 nM,50 to 500 nM
"7-(N-(HS627-Ac-PEG2-Gly-Lys-PABC), N-((R)-tetrahydrofuran-3-yl)amino)ethyl-10,11-methylenedioxycamptothecin [ADC 13]",50 to 500 nM,50 to 500 nM,50 to 500 nM
"7-(N-(IP140B-mc-Val-Cit-PABC), N-(tetrahydropyran-4-yl)amino)ethyl-10,11-methylenedioxycamptothecin [ADC 2]",5 to 50 nM,< 5 nM,5 to 50 nM
"7-(N-(IP140B-Ac-PEG2-Gly-Lys-PABC), N-((R)-tetrahydrofuran-3-yl)amino)ethyl-10,11-methylenedioxycamptothecin [ADC 14]",5 to 50 nM,5 to 50 nM,5 to 50 nM
"7-(N-(HS627-AcPEG2-Gly-Lys-PABC), N-(tetrahydropyran-4-yl)amino)ethyl-10,11-methylenedioxycamptothecin [ADC 5]",50 to 500 nM,50 to 500 nM,> 250 nM
"7-(N-(HS627-mPEG2-Gly-Lys-PABC), N-(tetrahydropyran-4-yl)amino)ethyl-10,11-methylenedioxycamptothecin [ADC 3]",5 to 50 nM,5 to 50 nM,5 to 50 nM
"20-O-(IP140B-AcPEG2-Gly-Val-Ala-Gly-NHNHC)-7-(N-(tetrahydropyran-4-yl)amino)ethyl-10,11-methylenedioxycamptothecin [ADC 18]",< 5 nM,< 5 nM,< 5 nM
"7-(N-(HS627-mc-Val-Cit-PABC), N-(tetrahydropyran-4-yl)amino)ethyl-10,11-methylenedioxycamptothecin [ADC 1]",50 to 500 nM,5 to 50 nM,5 to 50 nM
"7-(N-(IP140B-mPEG2-Gly-Lys-PABC), N-(tetrahydropyran-4-yl)amino)ethyl-10,11-methylenedioxycamptothecin [ADC 4]",5 to 50 nM,5 to 50 nM,5 to 50 nM
"7-(N-(IP140B-AcPEG4-Gly-Lys-PABC), N-(tetrahydropyran-4-yl)amino)ethyl-10,11-methylenedioxycamptothecin [ADC 8]",50 to 500 nM,50 to 500 nM,50 to 500 nM
"7-(N-(IP140B-Qx-PEG2-Gly-Lys-PABC), N-(tetrahydropyran-4-yl)amino)ethyl-10,11-methylenedioxycamptothecin [ADC 10]",< 5 nM,< 5 nM,5 to 50 nM
"7-(N-(HS627-AcPEG4-Gly-Lys-PABC), N-(tetrahydropyran-4-yl)amino)ethyl-10,11-methylenedioxycamptothecin [ADC 7]",50 to 500 nM,50 to 500 nM,> 250 nM
"20-O-(IP140B-Ac-PEG4-daP-NHNHC)-7-(N-(tetrahydropyran-4-yl)amino)ethyl-10,11-methylenedioxycamptothecin [ADC 20]",< 5 nM,< 5 nM,< 5 nM
"7-(N-(IP140B-Qx-PEG2-Gly-Lys-PABC), N-((R)-tetrahydrofuran-3-yl)amino)ethyl-10,11-methylenedioxycamptothecin [ADC 12]",5 to 50 nM,< 5 nM,5 to 50 nM
"7-(N-(IP140B-AcPEG2-Gly-Lys-PABC), N-(tetrahydropyran-4-yl)amino)ethyl-10,11-methylenedioxycamptothecin [ADC 6]",50 to 500 nM,5 to 50 nM,5 to 50 nM
